The record followed here is the supplement of paper PMC10307832.

What all share (test): relative viability (nuclei count vs DMSO), 5 days (fraction); higher = more cells survive
Compound in experiment [1]: CC1=NC=CC(=C1)C2=CC=C(C=C2)CC(=O)NC3=CC=C(C=C3)C4=CN=CC=C4 [Wnt-C59] + CS(=O)(=O)CCNCc1ccc(-c2ccc3ncnc(Nc4ccc(OCc5cccc(F)c5)c(Cl)c4)c3c2)o1 [Lapatinib] (partner 2 µM)
The gist of the method:
(§1)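 Lung cancer cell lines, seeded in 1536-well plates, were treated the following day by pin tool with a single drug or with five library-drug doses (not always all listed) in √10 steps on top of a fixed anchor-drug dose. Cells were fixed and nuclei stained in one step after 5 days, and nuclei were counted. Relative viability is the nuclei count for treated wells divided by that for vehicle wells, reported as medians of duplicate plates.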

Compound in experiment [2]: CS(=O)(=O)CCNCc1ccc(-c2ccc3ncnc(Nc4ccc(OCc5cccc(F)c5)c(Cl)c4)c3c2)o1 [Lapatinib] + N=C(N)NC(=N)NCCc1ccccc1 [Phenformin] (partner 250 µM)
The procedure, abridged: as §1

Compound in experiment [3]: CS(=O)(=O)CCNCc1ccc(-c2ccc3ncnc(Nc4ccc(OCc5cccc(F)c5)c(Cl)c4)c3c2)o1 [Lapatinib] + COc1cc2c(Oc3ccc(NC(=O)C4(C(=O)Nc5ccc(F)cc5)CC4)cc3F)ccnc2cc1OCCCN1CCOCC1 [Foretinib] (partner 0.25 µM)
The procedure, abridged:
as §1

Compound in experiment [4]: CC1=NC=CC(=C1)C2=CC=C(C=C2)CC(=O)NC3=CC=C(C=C3)C4=CN=CC=C4 [Wnt-C59] + Cc1nc(NC(=O)N2CCC[C@H]2C(N)=O)sc1-c1ccnc(C(C)(C)C(F)(F)F)c1 [Alpelisib] (partner 2 µM)
The procedure, abridged: as §1

Turning to PC-14, the relative viability was determined as 0.311 in experiment [1] (first compound 0.001 µM); 0.324 in experiment [1] (first compound 0.01 µM); 0.328 in experiment [1] (first compound 0.03162 µM); 0.316 in experiment [1] (first compound 0.1 µM); 0.642 in experiment [2] (first compound 0.06325 µM); 0.523 in experiment [2] (first compound 0.2 µM). The relative viability in experiment [2] (first compound 0.6325 µM) is 0.461; in experiment [2] (first compound 2 µM), 0.337; in experiment [3] (first compound 0.02 µM), 0.864; in experiment [3] (first compound 0.06325 µM), 0.913; in experiment [3] (first compound 0.2 µM), 1.03; in experiment [3] (first compound 0.6325 µM), 0.873. Further, the relative viability in experiment [3] (first compound 2 µM) was found to be 0.78; in experiment [4] (first compound 0.001 µM) it was 1.01; in experiment [4] (first compound 0.01 µM), 0.92; in experiment [4] (first compound 0.03162 µM), 0.995; in experiment [4] (first compound 0.1 µM), 0.934.
For the cell line RERF-LC-KJ, the relative viability in experiment [1] (first compound 0.001 µM) came to 0.892; in experiment [1] (first compound 0.01 µM) it was 0.836; in experiment [1] (first compound 0.03162 µM), 0.925; in experiment [1] (first compound 0.1 µM), 0.797; in experiment [2] (first compound 0.02 µM), 0.406; in experiment [2] (first compound 0.06325 µM), 0.39. Further, the relative viability turned out to be 0.469 in experiment [2] (first compound 0.2 µM); 0.35 in experiment [2] (first compound 0.6325 µM); 0.369 in experiment [2] (first compound 2 µM); 0.887 in experiment [3] (first compound 0.02 µM); 0.794 in experiment [3] (first compound 0.06325 µM); 0.924 in experiment [3] (first compound 0.2 µM). Further, the relative viability in experiment [3] (first compound 0.6325 µM) was 0.85; in experiment [3] (first compound 2 µM), 0.759; in experiment [4] (first compound 0.001 µM) it was 0.743; in experiment [4] (first compound 0.01 µM), 0.764; in experiment [4] (first compound 0.03162 µM), 0.853; in experiment [4] (first compound 0.1 µM) it was 0.883.
For the cell line SK-LU-1, the relative viability amounted to 0.798 in experiment [1] (first compound 0.001 µM); 0.789 in experiment [1] (first compound 0.01 µM); 0.915 in experiment [1] (first compound 0.03162 µM); 0.823 in experiment [1] (first compound 0.1 µM); 0.464 in experiment [2] (first compound 0.02 µM); 0.484 in experiment [2] (first compound 0.06325 µM). Moreover, the relative viability in experiment [2] (first compound 0.2 µM) stood at 0.547; in experiment [2] (first compound 0.6325 µM), 0.674; in experiment [2] (first compound 2 µM), 0.512; in experiment [3] (first compound 0.02 µM), 0.773; in experiment [3] (first compound 0.06325 µM) it was 0.789; in experiment [3] (first compound 0.2 µM), 0.857. The relative viability in experiment [3] (first compound 0.6325 µM) came out at 0.8; in experiment [3] (first compound 2 µM) it was 0.883; in experiment [4] (first compound 0.001 µM), 0.996; in experiment [4] (first compound 0.01 µM), 0.992; in experiment [4] (first compound 0.03162 µM) it was 1.08; in experiment [4] (first compound 0.1 µM), 1.05.
Regarding SK-MES-1, the relative viability in experiment [1] (first compound 0.001 µM) stood at 0.543; in experiment [1] (first compound 0.01 µM), 0.5; in experiment [1] (first compound 0.03162 µM), 0.467; in experiment [1] (first compound 0.1 µM) it was 0.448; in experiment [2] (first compound 0.02 µM), 0.62; in experiment [2] (first compound 0.06325 µM), 0.684. Moreover, the relative viability in experiment [2] (first compound 0.2 µM) worked out at 0.684; in experiment [2] (first compound 0.6325 µM), 0.563; in experiment [2] (first compound 2 µM), 0.306; in experiment [3] (first compound 0.02 µM), 0.826; in experiment [3] (first compound 0.06325 µM), 0.499; in experiment [3] (first compound 0.2 µM), 0.969. The relative viability in experiment [3] (first compound 0.6325 µM) came out at 0.908; in experiment [3] (first compound 2 µM), 0.516; in experiment [4] (first compound 0.001 µM), 0.841; in experiment [4] (first compound 0.01 µM), 0.909; in experiment [4] (first compound 0.03162 µM), 0.833; in experiment [4] (first compound 0.1 µM), 0.965.
Consider SW 1573, for which the relative viability in experiment [1] (first compound 0.001 µM) stood at 1.06; in experiment [1] (first compound 0.01 µM) it was 0.906; in experiment [1] (first compound 0.03162 µM) it was 1.05; in experiment [1] (first compound 0.1 µM), 1.12; in experiment [2] (first compound 0.02 µM), 0.398; in experiment [2] (first compound 0.06325 µM), 0.338. The relative viability in experiment [2] (first compound 0.2 µM) was determined as 0.346; in experiment [2] (first compound 0.6325 µM) it was 0.347; in experiment [2] (first compound 2 µM), 0.354; in experiment [3] (first compound 0.02 µM), 1.04; in experiment [3] (first compound 0.06325 µM), 0.601; in experiment [3] (first compound 0.2 µM), 0.86. The relative viability was found to be 0.922 in experiment [3] (first compound 0.6325 µM); 0.886 in experiment [3] (first compound 2 µM); 0.701 in experiment [4] (first compound 0.001 µM); 0.758 in experiment [4] (first compound 0.01 µM); 0.89 in experiment [4] (first compound 0.03162 µM); 0.79 in experiment [4] (first compound 0.1 µM).
